Test results as given in ChEMBL document CHEMBL3734655, “Identification of camphor derivatives as novel M2 ion channel inhibitors of influenza A virus” (Medchemcomm, 2015).
Active and inactive are the calls of the source. No cut-off for these calls is given here.

Assays:
[1] = Cytotoxicity against MDCK cells incubated for 72 hrs by CCK-8 assay; assay type: cell-based, Canis lupus familiaris; conditions: dog
[2] = system: Influenza A virus H3N2; test: Antiviral activity against wild type M2 ion channel expressing Influenza A virus (A/Hong Kong/1968(H3N2)) infected in MDCK cells preincubated for 30 mins followed by viral infection measured after 72 hrs by CCK-8 assay; assay type: functional, organism-based; conditions: A/Hong Kong/1968, MDCK
[3] = system: Influenza A virus H3N2; test: Antiviral activity against wild type Influenza A virus (A/Hong Kong/1968(H3N2)) infected in MDCK cells assessed as reduction in size and number of plaque at 1 uM after 2 to 3 days by crystal violet staining based assay; assay type: functional, organism-based
[4] = system: Influenza A virus H3N2; test: Potency index, ratio of amantadine IC50 to compound IC50 for wild type M2 ion channel expressing Influenza A virus (A/Hong Kong/1968(H3N2)) infected in MDCK cells; assay type: functional
[5] = system: Influenza A virus H3N2; test: Antiviral activity against wild type Influenza A virus (A/Hong Kong/1968(H3N2)) infected in MDCK cells assessed as reduction in size and number of plaque at 0.2 uM after 2 to 3 days by crystal violet staining based assay; assay type: functional, organism-based

C[C@H]1[C@H]([C@H](C)N)C[C@@H]2C[C@H]1C2(C)C
MCC at 72 h [1]: > 300 µM | IC50 [2]: 1930 nM

NC1CC2CCC1C2 (configuration not stated)
MCC at 72 h [1]: > 300 µM | IC50 [2]: 17400 nM

CC1(C)[C@H]2CC[C@](C)(C2)[C@H]1CN
MCC at 72 h [1]: > 300 µM | IC50 [2]: 15700 nM

NC12CC3CC(CC(C3)C1)C2 [AMANTADINE]
IC50 [2]: 500 nM

CC1(C)[C@@H]2CC[C@@]1(C)[C@@H](N)C2 (relative stereo)
MCC at 72 h [1]: > 300 µM | IC50 [2]: 490 nM

C[C@H]1[C@H](CN)C[C@@H]2C[C@H]1C2(C)C
MCC at 72 h [1]: > 300 µM | IC50 [2]: 2470 nM

C[C@@H](N)[C@H]1C[C@H]2CC[C@]1(C)C2(C)C.Cl
MCC at 72 h [1]: > 300 µM | IC50 [2]: 100 nM | Activity [3]: Active | Ratio IC50 [4]: 5 | Activity [5]: Active

C[C@H]1[C@H](N)C[C@@H]2C[C@H]1C2(C)C
MCC at 72 h [1]: > 300 µM | IC50 [2]: 120 nM

CC1(C)[C@@H]2CC[C@@]1(C)[C@@H](CN)C2
MCC at 72 h [1]: > 300 µM | IC50 [2]: 290 nM

N[C@H]1C[C@@H]2CC[C@H]1C2
MCC at 72 h [1]: > 300 µM | IC50 [2]: 12400 nM
